What was measured:
[1] = test system: ENaC; experiment: Amiloride-sensitive short-circuit current in polarized CF airway epithelia; format: cell-based, human; conditions: data not shown
Procedure: Short-circuit current (Isc) measurement in polarized airway epithelia. Transepithelial short-circuit currents were measured using an epithelial voltage clamp and a self-contained Using chamber as described in Zabner et al. (1998). The basolateral side of the chamber was filled with Ringer's buffer solution containing 135 mM NaCl, 1.2 mM CaCl2, 2.4 mM KH2PO4, 0.2 mM K2HPO4, 1.2 mM MgCl2, and 5 mM HEPES, pH 7.4. The apical side of the chamber was filled with a low-chloride Ringer's containing 135 mM sodium gluconate, 1.2 mM CaCl2, 2.4 mM KH2PO4, 0.2 mM K2HPO4, 1.2 mM MgCl2, and 5 mM HEPES, pH 7.4. During the experiment, the chamber was maintained at 37° C. and aerated with 100% O2. Transepithelial voltage was clamped at zero, and the resulting Isc was measured and recorded following the sequential addition of the following channel antagonist and agonists: 1) 100 μM amiloride (apical), 2) 100 μM 4,4′-diisothiocyna-2,2′-disulfonic stilbene (DIDS) (apical), 3) 100 μM IBMX/10 μM forskolin (apical), 4) 100 μM bumetanide (basolateral). Voltage was referenced to the apical compartment. The series resistance of the Ringer's solution and transwell membrane was electrically compensated before starting experiments. All chemical agonists and antagonists were added to either the apical or the basolateral sides of the monolayer by direct injection and mixed by aerating the Ringer's solution. […]

[2] = test system: polarized human airway epithelial cells; format: cell-based
Procedure: Primary culture of human bronchial epithelia and reagents utilized. Primary human airway epithelial cells were collected by enzymatic digestion of bronchial samples from lung transplants, as previously described (Kondo et al., 1991; Zabner et al., 1996). Isolated primary airway cells were seeded at a density of 5×10^5 cells/cm^2 onto collagen-coated Millicell-HA culture inserts (Millipore Corp., Bedford, Mass.). Primary cultures were grown at the air-liquid interface for more than 2 weeks, by which time differentiation into a mucociliary epithelium occurs. The culture medium, used to feed only the basolateral side of the cells, contained 49% DMEM, 49% Ham's F12 and 2% Ultraser G (BioSepra, Cedex, France). Dimethyl Sulphoxide (DMSO), camptothecin (Camp), etoposide (Etop), aphidicolin (Aphi), hydroxyurea (HU) and genistein (Geni) were purchased from Sigma (St. Louis, Mo.). Tripeptidyl aldehyde proteasome inhibitors N-Acetyl-L-Leucyl-L-Leucyl-Norleucine (LLnL) and benzyloxycarbonyl-L-leucyl-L-leucyl-L-leucinal (Z-LLL) were purchased from Calbiochem-Novabiochem Corporation (La Jolla, Calif.). Ubiquitin ligase (E3) inhibitors were obtained from Bachem Bioscience Inc. (King of Prussia, Pa.). Anti-AAV capsid monoclonal antibody (Anti-VP1, 2 and 3) was purchased from American Research Products (Belmont, Mass.) and anti-ubiquitin antibody was purchased from Santa Cruz Biotechnology Inc. (Santa Cruz, Calif.).
Transduction of polarized airway epithelial cells and primary human fibroblasts. rAAV infection of fully differentiated bronchial cells was performed as described in Duan et al. (1998). For infections from the apical surface of the airway cells, 5 μl rAAV was mixed with 50 μl of culture media and applied directly onto the apical compartment of Millicell inserts (MOI=10,000 particles/cell). During apical infection, the basolateral side of the Millicell was continuously bathed in culture media. Gene transfer to the basal side was performed by inverting Millicell inserts and applying viral vector to the bottom of the supporting filter membrane in a 50 μl volume for 2 hours. Subsequently, Millicell inserts were returned to the upright position, in the continued presence of the original viral inoculum plus an additional 450 μl of media. For both apical and basolateral infections, rAAV containing media was removed after 24 hours and replaced with either fresh culture media (for the basal side) or exposed to air (for the apical side). To test the effect of different agents on the efficiency of AAV transduction in polarized airway cells, 1 μl of each solution was mixed with AAV prior to infection of airway epithelia. Agents were usually presented during the 24 hours AAV infection period unless indicated otherwise. Most of the agents were dissolved in DMSO except for hydroxyurea (dissolved in phosphate buffered saline), H-Leu-Ala-OH (dissolved in 0.9% glacial acetic acid) and H-His-Ala-OH (dissolved in 50% methanol). The working concentrations of the agents were as follows: 0.1 μM camptothecin, 10 μM etoposide, 5 μg/ml aphidicolin, 40 mM hydroxyurea, 50 μM genistein, 40 μM LLnL and 4 μM Z-LLL. When the ubiquitin ligase (E3) inhibitors (H-Leu-Ala-OH and H-His-Ala-OH) were used, airway cells were pretreated with a combination of both inhibitors at a final concentration of 2 mM for 60 minutes prior to infection, followed by the continued presence of inhibitor (0.2 mM) during the entire 24 hours infection period from the basolateral surface. Studies involving EGTA treatment were performed by transiently treating the apical membrane of polarized airway epithelia with 3 mM EGTA in water for 10 minutes (Duan et al., 1998). Following hypotonic EGTA treatment, cultures were washed twice with culture medium and infected with rAAV in the presence or absence of 40 μM LLnL. Human primary fibroblast cells (P4) were maintained in 10% fetal bovine serum (FBS), 1% penicillin and streptomycin, and 89% DMEM. […]

[3] = test system: polarized bronchial epithelia cells; experiment: S^35-labeled rAAV binding/entry and in situ localization in polarized bronchial epithelia; format: cell-based, human
Procedure: Viral binding/entry assays and in situ localization of viral particles. To assess the binding of rAAV to polarized bronchial epithelia cells, S^35-labeled AV.GFP3ori was applied to either the apical or basal surface (MOI=50,000 particles/cell), followed by incubation at 4° C. for 60 minutes. Combined binding/entry of rAAV into differentiated airway epithelia was measured under the same conditions, except that the cultures were incubated at 37° C. for an additional 2-24 hours before they were harvested. These combined viral binding/entry assays were performed under identical infection conditions to those used for functional studies of rAAV transduction with transgene expression as an endpoint. After washing three times in PBS, cells were lysed in situ by the addition of 5 ml of liquid scintillation cocktail at room temperature for 5 minutes, and the radioactivity was quantitated in a scintillation counter.
To analyze the subcellular localization of the rAAV particles within polarized human bronchial epithelial cells, infection was performed by applying S^35 labeled virus (MOI=50,000 particles/cell) to either the mucosal or serosal surface. At 2 hours post-infection, transwells were washed with medium three times and fixed in 4% paraformaldehyde overnight prior to cryoprotection and embedding for frozen sectioning. 10 μm frozen sections were overlaid with photoemulsion and developed for 5 weeks according to a previously published protocol (Duan et al., 1998).

Compound	inhibition of ENaC Isc by the single compound [1]	augmentation in transgene expression ([2]; applied to the serosal surface along with rAAV, 2 days post infection, 40 μM LLnL)	time of peak augmentation in AAV transduction ([2]; co-administration with rAAV to the mucosal surface) [days post-infection]	toxicity of continual administration ([2]; continual administration after basolateral infection)	time of transient peak in gene expression ([2]; rAAV infection from the serosal surface) [hours post-infection]	rAAV binding ([3]; 4° C.)	uptake of S^35 labeled rAAV ([3]; 2 hour infection period at 37° C.)	intracellular distribution of radiolabeled rAAV particles ([3]; 2 hours post-infection, photoemulsion overlay)	intracellular radioactivity ([3]; 24 hours post-infection)
COc1cccc2c1C(=O)c1c(O)c3c(c(O)c1C2=O)C[C@@](O)(C(=O)CO)C[C@@H]3O[C@H]1C[C@H](N)[C@H](O)[C@H](C)O1 [doxorubicin]	equivalent inhibition of ENaC Isc as seen with combined Dox/LLnL	–	–	–	–	–	–	–	–
N-acetyl-L-leucinyl-L-leucinal-L-norleucinal [LLnL]	–	greater than 200 fold	22	toxic to cells	72	no significant effect	not altered	significant shift to nuclear associated grains	very significant decrease

Reference: patent publication US20080206198A1, “Compounds and methods for pharmico-gene therapy of epithelial sodium channel associated disorders” (priority 2003, published 2008)
